Experimental data reported in US12435044B2, “Pyridazinone herbicides and pyridazinone intermediates used to prepare a herbicide” (FMC Corporation, priority 2018, dated 2025).

Tests used:
Type in all cases: in vivo
[1] = test system: common ragweed (AMBEL; Ambrosia artemisiifolia); assay: Test J pre-/postemergence, mixtures of Cpd. No. 20 with (b15C2)
Source text: (§1) This test evaluated the effect of mixtures of Cpd. No. 20 with (b15C2) on several plant species. Seeds of plant species selected from corn (ZEAMD; Zea mays, cv. ‘Pioneer 1184’), soybean (GLXMA; Glycine max, cv. Pioneer 35T58), giant foxtail (SETFA; Setaria faberi), palmer amaranth (AMAPA; Amaranthus palmeri), common waterhemp (AMATU; Amaranthus rudis), mare's tail (ERICA; Conyza canadensis), and common ragweed (AMBEL; Ambrosia artemisiifolia) were planted in pots containing Tama Silt Loam soil and treated preemergence with a directed soil spray using test chemicals formulated in a non-phytotoxic solvent mixture which included a surfactant.
(§2) At the same time, plants selected from these crop and weed species were planted in pots containing Redi-Earth® planting medium (Scotts Company, 14111 Scottslawn Road, Marysville, Ohio 43041) comprising spaghnum peat moss, vermiculite, wetting agent and starter nutrients and treated postemergence with test chemicals formulated in the same manner. Plants ranged in height from 2 to 10 cm and were in the one- to two-leaf stage for the postemergence treatment. Treated plants and untreated controls were maintained in a greenhouse for approximately 14-21 d, after which time all treated plants were compared to untreated controls and visually evaluated for injury. Plant response ratings, summarized in Tables J1 & J2, are based on a 0 to 100 scale where 0 is no effect and 100 is complete control. A dash (-) response means no test result. Test results are presented as a mean of 4 reps.

[2] = test system: common waterhemp (AMATU; Amaranthus rudis); assay: as above
Source text: as §1, §2

[3] = test system: corn (ZEAMD; Zea mays, cv. ‘Pioneer 1184’); assay: as above
Source text: as §1, §2

[4] = test system: giant foxtail (SETFA; Setaria faberi); assay: as above
Source text: as §1, §2

[5] = test system: mare's tail (ERICA; Conyza canadensis); assay: as above
Source text: as §1, §2

[6] = test system: palmer amaranth (AMAPA; Amaranthus palmeri); assay: as above
Source text: as §1, §2

[7] = test system: soybean (GLXMA; Glycine max, cv. Pioneer 35T58); assay: as above
Source text: as §1, §2

[8] = test system: common ragweed (AMBEL; Ambrosia artemisiifolia); assay: Test K pre-/postemergence, mixtures of Cpd. No. 20 with metribuzin or rimsulfuron
Source text: as §1, with “metribuzin or rimsulfuron” for “(b15C2)”
as §2, with “K1 to K4,” for “J1 & J2,”

[9] = test system: common waterhemp (AMATU; Amaranthus rudis); assay: as above
Source text: as §1, with “metribuzin or rimsulfuron” for “(b15C2)”
as §2, with “K1 to K4,” for “J1 & J2,”

[10] = test system: corn (ZEAMD; Zea mays, cv. ‘Pioneer 1184’); assay: as above
Source text: as §1, with “metribuzin or rimsulfuron” for “(b15C2)”
as §2, with “K1 to K4,” for “J1 & J2,”

[11] = test system: giant foxtail (SETFA; Setaria faberi); assay: as above
Source text: as §1, with “metribuzin or rimsulfuron” for “(b15C2)”
as §2, with “K1 to K4,” for “J1 & J2,”

[12] = test system: mare's tail (ERICA; Conyza canadensis); assay: as above
Source text: as §1, with “metribuzin or rimsulfuron” for “(b15C2)”
as §2, with “K1 to K4,” for “J1 & J2,”

[13] = test system: palmer amaranth (AMAPA; Amaranthus palmeri); assay: as above
Source text: as §1, with “metribuzin or rimsulfuron” for “(b15C2)”
as §2, with “K1 to K4,” for “J1 & J2,”

[14] = test system: soybean (GLXMA; Glycine max, cv. Pioneer 35T58); assay: as above
Source text: as §1, with “metribuzin or rimsulfuron” for “(b15C2)”
as §2, with “K1 to K4,” for “J1 & J2,”

## O=C(CCC(F)(F)F)c1c(Cl)cccc1Oc1ncc(Cl)cn1 [(b15C2), 1-[2-chloro-6-[(5-chloro-2-pyrimidinyl)oxy]phenyl]-4,4,4-trifluoro-1-butanone, reference compound]
[1]; postemergence, 8 g a.i./ha
  AMBEL plant response rating, 0 to 100 scale: 5
[1]; postemergence, 16 g a.i./ha
  AMBEL plant response rating, 0 to 100 scale: 3
[1]; postemergence, 31 g a.i./ha
  AMBEL plant response rating, 0 to 100 scale: 10
[1]; postemergence, 62 g a.i./ha
  AMBEL plant response rating, 0 to 100 scale: 20
[1]; preemergence, 8 g a.i./ha
  AMBEL plant response rating, 0 to 100 scale: 0
[1]; preemergence, 16 g a.i./ha
  AMBEL plant response rating, 0 to 100 scale: 0
[1]; preemergence, 31 g a.i./ha
  AMBEL plant response rating, 0 to 100 scale: 0
[1]; preemergence, 62 g a.i./ha
  AMBEL plant response rating, 0 to 100 scale: 15
[2]; postemergence, 8 g a.i./ha
  AMATU plant response rating, 0 to 100 scale: 43
[2]; postemergence, 16 g a.i./ha
  AMATU plant response rating, 0 to 100 scale: 55
[2]; postemergence, 31 g a.i./ha
  AMATU plant response rating, 0 to 100 scale: 75
[2]; postemergence, 62 g a.i./ha
  AMATU plant response rating, 0 to 100 scale: 83
[2]; preemergence, 8 g a.i./ha
  AMATU plant response rating, 0 to 100 scale: 20
[2]; preemergence, 16 g a.i./ha
  AMATU plant response rating, 0 to 100 scale: 79
[2]; preemergence, 31 g a.i./ha
  AMATU plant response rating, 0 to 100 scale: 100
[2]; preemergence, 62 g a.i./ha
  AMATU plant response rating, 0 to 100 scale: 100
[3]; postemergence, 8 g a.i./ha
  ZEAMD plant response rating, 0 to 100 scale: 3
[3]; postemergence, 16 g a.i./ha
  ZEAMD plant response rating, 0 to 100 scale: 5
[3]; postemergence, 31 g a.i./ha
  ZEAMD plant response rating, 0 to 100 scale: 9
[3]; postemergence, 62 g a.i./ha
  ZEAMD plant response rating, 0 to 100 scale: 10
[3]; preemergence, 8 g a.i./ha
  ZEAMD plant response rating, 0 to 100 scale: 0
[3]; preemergence, 16 g a.i./ha
  ZEAMD plant response rating, 0 to 100 scale: 0
[3]; preemergence, 31 g a.i./ha
  ZEAMD plant response rating, 0 to 100 scale: 0
[3]; preemergence, 62 g a.i./ha
  ZEAMD plant response rating, 0 to 100 scale: 0
[4]; postemergence, 8 g a.i./ha
  SETFA plant response rating, 0 to 100 scale: 5
[4]; postemergence, 16 g a.i./ha
  SETFA plant response rating, 0 to 100 scale: 5
[4]; postemergence, 31 g a.i./ha
  SETFA plant response rating, 0 to 100 scale: 8
[4]; postemergence, 62 g a.i./ha
  SETFA plant response rating, 0 to 100 scale: 6
[4]; preemergence, 8 g a.i./ha
  SETFA plant response rating, 0 to 100 scale: 8
[4]; preemergence, 16 g a.i./ha
  SETFA plant response rating, 0 to 100 scale: 64
[4]; preemergence, 31 g a.i./ha
  SETFA plant response rating, 0 to 100 scale: 95
[4]; preemergence, 62 g a.i./ha
  SETFA plant response rating, 0 to 100 scale: 100
[5]; postemergence, 8 g a.i./ha
  ERICA plant response rating, 0 to 100 scale: 0
[5]; postemergence, 16 g a.i./ha
  ERICA plant response rating, 0 to 100 scale: 0
[5]; postemergence, 31 g a.i./ha
  ERICA plant response rating, 0 to 100 scale: 0
[5]; postemergence, 62 g a.i./ha
  ERICA plant response rating, 0 to 100 scale: 5
[5]; preemergence, 8 g a.i./ha
  ERICA plant response rating, 0 to 100 scale: 0
[5]; preemergence, 16 g a.i./ha
  ERICA plant response rating, 0 to 100 scale: 0
[5]; preemergence, 31 g a.i./ha
  ERICA plant response rating, 0 to 100 scale: 0
[5]; preemergence, 62 g a.i./ha
  ERICA plant response rating, 0 to 100 scale: 13
[6]; postemergence, 8 g a.i./ha
  AMAPA plant response rating, 0 to 100 scale: 20
[6]; postemergence, 16 g a.i./ha
  AMAPA plant response rating, 0 to 100 scale: 38
[6]; postemergence, 31 g a.i./ha
  AMAPA plant response rating, 0 to 100 scale: 56
[6]; postemergence, 62 g a.i./ha
  AMAPA plant response rating, 0 to 100 scale: 74
[6]; preemergence, 8 g a.i./ha
  AMAPA plant response rating, 0 to 100 scale: 63
[6]; preemergence, 16 g a.i./ha
  AMAPA plant response rating, 0 to 100 scale: 90
[6]; preemergence, 31 g a.i./ha
  AMAPA plant response rating, 0 to 100 scale: 100
[6]; preemergence, 62 g a.i./ha
  AMAPA plant response rating, 0 to 100 scale: 100
[7]; postemergence, 8 g a.i./ha
  GLXMA plant response rating, 0 to 100 scale: 20
[7]; postemergence, 16 g a.i./ha
  GLXMA plant response rating, 0 to 100 scale: 29
[7]; postemergence, 31 g a.i./ha
  GLXMA plant response rating, 0 to 100 scale: 43
[7]; postemergence, 62 g a.i./ha
  GLXMA plant response rating, 0 to 100 scale: 68
[7]; preemergence, 8 g a.i./ha
  GLXMA plant response rating, 0 to 100 scale: 0
[7]; preemergence, 16 g a.i./ha
  GLXMA plant response rating, 0 to 100 scale: 0
[7]; preemergence, 31 g a.i./ha
  GLXMA plant response rating, 0 to 100 scale: 0
[7]; preemergence, 62 g a.i./ha
  GLXMA plant response rating, 0 to 100 scale: 0

## CCS(=O)(=O)c1cccnc1S(=O)(=O)NC(=O)Nc1nc(OC)cc(OC)n1 [Rimsulfuron, rimsulfuron, reference compound]
[8]; postemergence, 8 g a.i./ha
  AMBEL plant response rating, 0 to 100 scale: 40
[8]; postemergence, 16 g a.i./ha
  AMBEL plant response rating, 0 to 100 scale: 60
[8]; preemergence, 8 g a.i./ha
  AMBEL plant response rating, 0 to 100 scale: 0
[8]; preemergence, 16 g a.i./ha
  AMBEL plant response rating, 0 to 100 scale: 43
[9]; postemergence, 8 g a.i./ha
  AMATU plant response rating, 0 to 100 scale: 75
[9]; postemergence, 16 g a.i./ha
  AMATU plant response rating, 0 to 100 scale: 77
[9]; preemergence, 8 g a.i./ha
  AMATU plant response rating, 0 to 100 scale: 51
[9]; preemergence, 16 g a.i./ha
  AMATU plant response rating, 0 to 100 scale: 73
[10]; postemergence, 8 g a.i./ha
  ZEAMD plant response rating, 0 to 100 scale: 0
[10]; postemergence, 16 g a.i./ha
  ZEAMD plant response rating, 0 to 100 scale: 10
[10]; preemergence, 8 g a.i./ha
  ZEAMD plant response rating, 0 to 100 scale: 0
[10]; preemergence, 16 g a.i./ha
  ZEAMD plant response rating, 0 to 100 scale: 0
[11]; postemergence, 8 g a.i./ha
  SETFA plant response rating, 0 to 100 scale: 80
[11]; postemergence, 16 g a.i./ha
  SETFA plant response rating, 0 to 100 scale: 97
[11]; preemergence, 8 g a.i./ha
  SETFA plant response rating, 0 to 100 scale: 50
[11]; preemergence, 16 g a.i./ha
  SETFA plant response rating, 0 to 100 scale: 73
[12]; postemergence, 8 g a.i./ha
  ERICA plant response rating, 0 to 100 scale: 50
[12]; postemergence, 16 g a.i./ha
  ERICA plant response rating, 0 to 100 scale: 70
[12]; preemergence, 8 g a.i./ha
  ERICA plant response rating, 0 to 100 scale: 95
[12]; preemergence, 16 g a.i./ha
  ERICA plant response rating, 0 to 100 scale: 98
[13]; postemergence, 8 g a.i./ha
  AMAPA plant response rating, 0 to 100 scale: 60
[13]; postemergence, 16 g a.i./ha
  AMAPA plant response rating, 0 to 100 scale: 60
[13]; preemergence, 8 g a.i./ha
  AMAPA plant response rating, 0 to 100 scale: 33
[13]; preemergence, 16 g a.i./ha
  AMAPA plant response rating, 0 to 100 scale: 40
[14]; postemergence, 8 g a.i./ha
  GLXMA plant response rating, 0 to 100 scale: 75
[14]; postemergence, 16 g a.i./ha
  GLXMA plant response rating, 0 to 100 scale: 93
[14]; preemergence, 8 g a.i./ha
  GLXMA plant response rating, 0 to 100 scale: 0
[14]; preemergence, 16 g a.i./ha
  GLXMA plant response rating, 0 to 100 scale: 0
